Measurements: US20240294533A1, “2-(HET)ARYL-SUBSTITUTED CONDENSED HETEROCYCLE DERIVATIVES AS PEST CONTROL AGENTS” (Bayer Aktiengesellschaft, priority 2021, published 2024)
Like-named read-outs stand apart in the source and are kept apart here.

Columns and labels:
[1] = log P by HPLC on reversed-phase column (C18); type: physicochemical; conditions: LC-UV
Protocol: log P Values The log P values were determined according to EEC Directive 79/831 Annex V.A8 by HPLC (high-performance liquid chromatography) on a reversed-phase column (C18) using the following methods: ^[a] […] Calibration was carried out using straight-chain alkan-2-ones (having 3 to 16 carbon atoms) with known log P values. The values between successive alkanones are determined by linear regression.

Spodoptera frugiperda = Spodoptera frugiperda spray test (maize leaf discs); type: in vivo; conditions: after 7 days; for pest or weed control at 100 g/ha: Spodoptera frugiperda, foliar, 168 h, read-out: efficacy
Description: Spodoptera Frusiperda—Spray Test Solvent: 78.0 parts by weight of acetone • • 1.5 parts by weight of dimethylformamide Emulsifier: alkylaryl polyglycol ether An appropriate active ingredient formulation is produced by dissolving 1 part by weight of active ingredient with the stated parts by weight of solvent and making the solution up to the desired concentration with water containing an emulsifier concentration of 1000 ppm. Further test concentrations are produced by diluting the formulation with emulsifier-containing water. Leaf discs of maize (Zea mays) are sprayed with an active ingredient formulation of the desired concentration and, after drying, populated with caterpillars of the fall armyworm (Spodoptera frugiperda). After 7 days, efficacy in % is determined. 100% means that all the caterpillars have been killed; 0% means that no caterpillar has been killed.

Nezara viridula [2] = assay: Nezara viridula spray test (infected barley plants sprayed); type: in vivo; conditions: 100 g ai/ha, after 4 days
Description: (§1) Nezara viridula—Spray Test Solvent: 52.5 parts by weight of acetone • 7 parts by weight of dimethylformamide Emulsifier: alkylaryl polyglycol ether An appropriate active ingredient formulation is produced by dissolving 1 part by weight of active ingredient with the stated parts by weight of solvent and making the solution up to the desired concentration with water containing an emulsifier concentration of 1000 ppm. Further test concentrations are produced by diluting the formulation with emulsifier-containing water. If the addition of ammonium salts or/and penetrants is required, these are each added in a concentration of 1000 ppm to the formulation solution. Barley plants (Hordeum vulgare) infected with larvae of the Southern green shield bug (Nezara viridula) are sprayed with an active ingredient formulation of the desired concentration. After 4 days, efficacy in % is determined. 100% means that all of the shield bugs have been killed; 0% means that none of the shield bugs have been killed.

Diabrotica balteata = Diabrotica balteata spray test; type: in vivo; conditions: wheat grains, after 7 days; for pest or weed control at 100 g/ha / pest or weed control at 125 g/ha: Diabrotica balteata, 168 h, read-out: efficacy; for pest or weed control at 125 g/ha: 125 g/ha (=40 μg/cavity)
Description: Diabrotica balteata—Spray Test Solvent: 78 parts by weight of acetone • • 1.5 parts by weight of dimethylformamide Emulsifier: alkylaryl polyglycol ether An appropriate active ingredient formulation is produced by dissolving 1 part by weight of active ingredient with the stated parts by weight of solvent and making the solution up to the desired concentration with water containing an emulsifier concentration of 1000 ppm. Further test concentrations are produced by diluting the formulation with emulsifier-containing water. Pre-swollen wheat grains (Triticum aestivum) are incubated in a multiwell plate filled with agar and a little water for one day (5 seed grains per cavity). The germinated wheat grains are sprayed with an active ingredient formulation of the desired concentration. Subsequently, each cavity is infected with 10-20 beetle larvae of Diabrotica balteata. After 7 days, efficacy in % is determined. 100% means that all wheat plants have grown as in the untreated, uninfected control; 0% means that no wheat plant has grown.

Meloidogyne incognita = Meloidogyne incognita test; type: in vivo; conditions: lettuce, gall formation after 14 days; for pest or weed control at 20 ppm: Meloidogyne incognita, 336 h, read-out: nematicidal efficacy
Description: Meloidogyne incognita Test Solvent: 125.0 parts by weight of acetone An appropriate active ingredient formulation is produced by mixing 1 part by weight of active ingredient with the stated amount of solvent and diluting the concentrate to the desired concentration with water. Vessels are filled with sand, active ingredient solution, an egg/larvae suspension of the southern root-knot nematode (Meloidogyne incognita) and lettuce seeds. The lettuce seeds germinate and the plants develop. The galls develop on the roots. After 14 days, the nematicidal efficacy in % is determined by the formation of galls. 100% means that no galls were found; 0% means that the number of galls on the treated plants corresponds to the untreated control.

Myzus persicae = Myzus persicae oral test; type: in vivo; conditions: 4 ppm, after 5 days
Protocol: Myzus persicae—Oral Test Solvent: 100 parts by weight of acetone An appropriate active ingredient formulation is produced by dissolving 1 part by weight of active ingredient with the specified parts by weight of solvent and making the solution up to the desired concentration with water. 50 μl of the active ingredient formulation is transferred into microtitre plates and made up to a final volume of 200 μl with 150 μl of IPL41 insect medium (33%+15% sugar). Subsequently, the plates are sealed with parafilm, which a mixed population of green peach aphids (Myzus persicae) within a second microtitre plate is able to puncture and imbibe the solution. After 5 days, efficacy in % is determined. 100% means that all the aphids have been killed; 0% means that no aphids have been killed.

Nezara viridula [3] = assay: Nezara viridula spray test (plants sprayed, then infected); type: in vivo; conditions: 500 g/ha, barley plants, after 4 days
Description: as §1, with “78.0” for “52.5”, “• 1.5” for “7”, “water.” for “water. If the addition of ammonium salts or/and penetrants is required, these are each added in a concentration of 1000 ppm to the formulation solution.”, “vulgare) are sprayed with an active ingredient formulation of the desired concentration and are” for “vulgare)”, “viridula).” for “viridula) are sprayed with an active ingredient formulation of the desired concentration.”

[4] = neutral range, ammonium acetate/acetonitrile, read-out: log P (neutral)

SMILES | pest or weed control at 100 g/ha (Spodoptera frugiperda) [%] | pest or weed control at 100 g/ha (Diabrotica balteata; 100 g/ha (=32 μg/cavity)) [%] | pest or weed control at 20 ppm (Meloidogyne incognita) [%] | further results
Cn1c(-c2nc(F)ccc2F)nc2cc(C(F)(F)C(F)(F)F)cnc21 [2-(3,6-Difluoro-2-pyridyl)-3-methyl-6-(1,1,2,2,2-pentafluoroethyl)imidazo[4,5-b]pyridine] | – | – | – | chromatographic logP [1, 4]: 3.3
CCS(=O)(=O)c1ccc(-n2ncn(-c3cccc(I)c3)c2=O)nc1-c1nc2cc(C(F)(F)C(F)(F)F)cnc2n1C [Example I-18] | 100 | 100 | – | efficacy (Nezara viridula [2]): 90%
CCS(=O)(=O)c1ccc(-n2ncn(-c3ccc(I)cc3)c2=O)nc1-c1nc2cc(C(F)(F)C(F)(F)F)nnc2n1C [Example I-09] | 100 | 100 | 90 | –
CCS(=O)(=O)c1ccc(-n2ncn(-c3ccc(I)cc3)c2=O)nc1-c1nc2cc(C(F)(F)C(F)(F)F)cnc2n1C [Example I-20] | 100 | – | 90 | efficacy (Nezara viridula [2]): 100%; pest or weed control at 125 g/ha (Diabrotica balteata): 100%
CCS(=O)(=O)c1ccc(-n2ncn(-c3ccc(/C=N/OC)cc3)c2=O)nc1-c1nc2cc(C(F)(F)C(F)(F)F)cnc2n1C [Example I-24] | 100 | 100 | – | –
CCS(=O)(=O)c1ccc(-n2ncn(-c3ccc(C4(C#N)CC4)cc3)c2=O)nc1-c1nc2cc(C(F)(F)C(F)(F)F)nnc2n1C [Example I-21] | 100 | – | 90 | efficacy (Myzus persicae): 100%; pest or weed control at 125 g/ha (Diabrotica balteata): 100%
CCS(=O)(=O)c1ccc(-n2ncn(-c3ccc(Cl)c(C#N)c3)c2=O)nc1-c1nc2cc(C(F)(F)C(F)(F)F)nnc2n1C [Example I-08] | 100 | 100 | 100 | –
CCS(=O)(=O)c1ccc(-n2ncn(-c3cccc(Cl)c3)c2=O)nc1-c1nc2cc(C(F)(F)C(F)(F)F)cnc2n1C [Example I-19] | 100 | 100 | – | –
CCS(=O)(=O)c1ccc(-n2ncn(-c3cccc(F)c3)c2=O)nc1-c1nc2cc(C(F)(F)C(F)(F)F)cnc2n1C [Example I-16] | 100 | 100 | 100 | –
CCS(=O)(=O)c1ccc(-n2ncn(-c3ccc(F)cc3)c2=O)nc1-c1nc2cc(C(F)(F)C(F)(F)F)nnc2n1C [Example I-10] | 100 | 100 | 100 | –
CCS(=O)(=O)c1ccc(-n2ncn(-c3cccc(Cl)c3)c2=O)nc1-c1nc2cc(C(F)(F)C(F)(F)F)nnc2n1C [Example I-13] | 100 | 100 | – | efficacy (Nezara viridula [2]): 100%
CCS(=O)(=O)c1ccc(-n2ncn(-c3cccc(C4(C#N)CC4)c3)c2=O)nc1-c1nc2cc(C(F)(F)C(F)(F)F)nnc2n1C [Example I-01] | 100 | 100 | – | –
CCS(=O)(=O)c1ccc(-n2ncn(-c3ccc(C#N)c(Cl)c3)c2=O)nc1-c1nc2cc(C(F)(F)C(F)(F)F)cnc2n1C [Example I-17] | 100 | 100 | 90 | efficacy (Myzus persicae): 90%
CCS(=O)(=O)c1ccc(-n2ncn(-c3cccc(Br)c3)c2=O)nc1-c1nc2cc(C(F)(F)C(F)(F)F)nnc2n1C [Example I-15] | 100 | – | – | nematicidal efficacy (Meloidogyne incognita; 20 ppm): 100%; efficacy (Nezara viridula [2]): 100%; efficacy (Diabrotica balteata; 100 g/ha (=32 μg/cavity)): 100%
CCS(=O)(=O)c1ccc(-n2ncn(-c3cccc(C4(C#N)CC4)c3)c2=O)nc1-c1nc2cc(C(F)(F)C(F)(F)F)cnc2n1C [Example I-04] | 100 | 100 | – | efficacy (Nezara viridula [3]): 100%
CCSc1ccc(F)nc1-c1nc2cc(C(F)(F)C(F)(F)F)cnc2n1C [2-(3-Ethylsulfanyl-6-fluoro-2-pyridyl)-3-methyl-6-(1,1,2,2,2-pentafluoroethyl)imidazo[4,5-b]pyridine] | – | – | – | chromatographic logP ([1]; acidic range, formic acid/acetonitrile, read-out: log P (acidic)): 4.05
CCS(=O)(=O)c1ccc(-n2ncn(-c3cccc(Br)c3)c2=O)nc1-c1nc2cc(C(F)(F)C(F)(F)F)nnc2n1C [Example I-11] | – | 100 | 100 | efficacy (Spodoptera frugiperda; 100 g/ha): 100%; efficacy (Nezara viridula [2]): 90%
CCS(=O)(=O)c1ccc(-n2ncn(-c3ccc(Cl)c(C#N)c3)c2=O)nc1-c1nc2cc(C(F)(F)C(F)(F)F)cnc2n1C [Example I-07] | 100 | 100 | 100 | efficacy (Nezara viridula [3]): 100%
CCS(=O)(=O)c1ccc(-n2ncn(-c3ccc(C#N)c(Cl)c3)c2=O)nc1-c1nc2cc(C(F)(F)C(F)(F)F)nnc2n1C [Example I-05] | 100 | 100 | 100 | –
CCS(=O)(=O)c1ccc(F)nc1-c1nc2cc(C(F)(F)C(F)(F)F)cnc2n1C [2-(3-Ethylsulfonyl-6-fluoro-2-pyridyl)-3-methyl-6-(1,1,2,2,2-pentafluoroethyl)imidazo[4,5-b]pyridine] | – | – | – | chromatographic logP [1, 4]: 3.33
